Legend:
MOLT-4 = assay: NCI-60 single-dose screen; type: cell-based; conditions: Homo sapiens, single dose 10 µM, '-' = no inhibition, read-out: % Growth Inhibition
Summary of the method: (§1)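 Single concentration (10 μM) per compound, assayed by the NCI DTP against its 60-line panel covering leukemia, lung, colon, CNS, melanoma, ovarian, renal, prostate and breast cancers.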

DU-145 = assay: NCI-60 single-dose screen; type: cell-based; conditions: Homo sapiens, single dose 10 µM, '-' = no inhibition, read-out: % Growth Inhibition
Summary of the method: as §1

SF-295 = assay: NCI-60 single-dose screen; type: cell-based; conditions: Homo sapiens, single dose 10 µM, '-' = no inhibition, read-out: % Growth Inhibition
Summary of the method: as §1

NCI-H460 = assay: NCI-60 single-dose screen; type: cell-based; conditions: Homo sapiens, single dose 10 µM, '-' = no inhibition, read-out: % Growth Inhibition
Summary of the method: as §1

A498 = assay: NCI-60 single-dose screen; type: cell-based; conditions: Homo sapiens, single dose 10 µM, '-' = no inhibition, read-out: % Growth Inhibition
Summary of the method: as §1

KM12 = assay: NCI-60 single-dose screen; type: cell-based; conditions: Homo sapiens, single dose 10 µM, '-' = no inhibition, read-out: % Growth Inhibition
Summary of the method: as §1

EKVX = assay: NCI-60 single-dose screen; type: cell-based; conditions: Homo sapiens, single dose 10 µM, '-' = no inhibition, read-out: % Growth Inhibition
Summary of the method: as §1

RXF 393 = assay: NCI-60 single-dose screen; type: cell-based; conditions: Homo sapiens, single dose 10 µM, '-' = no inhibition, read-out: % Growth Inhibition
Summary of the method: as §1

NCI-H23 = assay: NCI-60 single-dose screen; type: cell-based; conditions: Homo sapiens, single dose 10 µM, '-' = no inhibition, read-out: % Growth Inhibition
Summary of the method: as §1

M14 = assay: NCI-60 single-dose screen; type: cell-based; conditions: Homo sapiens, single dose 10 µM, '-' = no inhibition, read-out: % Growth Inhibition
Summary of the method: as §1

NCI-H522 = assay: NCI-60 single-dose screen; type: cell-based; conditions: Homo sapiens, single dose 10 µM, '-' = no inhibition, read-out: % Growth Inhibition
Summary of the method: as §1

MDA-MB231/ATCC = assay: NCI-60 single-dose screen; type: cell-based; conditions: Homo sapiens, MDA-MB-231, single dose 10 µM, '-' = no inhibition, read-out: % Growth Inhibition
Summary of the method: as §1

MDA-MB-435 = assay: NCI-60 single-dose screen; type: cell-based; conditions: Homo sapiens, single dose 10 µM, '-' = no inhibition, read-out: % Growth Inhibition
Summary of the method: as §1

SNB-75 = assay: NCI-60 single-dose screen; type: cell-based; conditions: Homo sapiens, single dose 10 µM, '-' = no inhibition, read-out: % Growth Inhibition
Summary of the method: as §1

HCC-2998 = assay: NCI-60 single-dose screen; type: cell-based; conditions: Homo sapiens, single dose 10 µM, '-' = no inhibition, read-out: % Growth Inhibition
Summary of the method: as §1

MALME-3M = assay: NCI-60 single-dose screen; type: cell-based; conditions: Homo sapiens, single dose 10 µM, '-' = no inhibition, read-out: % Growth Inhibition
Summary of the method: as §1

MDA-MB-468 = assay: NCI-60 single-dose screen; type: cell-based; conditions: Homo sapiens, single dose 10 µM, '-' = no inhibition, read-out: % Growth Inhibition
Summary of the method: as §1

PC-3 = assay: NCI-60 single-dose screen; type: cell-based; conditions: Homo sapiens, single dose 10 µM, '-' = no inhibition, read-out: % Growth Inhibition
Summary of the method: as §1

SW-620 = assay: NCI-60 single-dose screen; type: cell-based; conditions: Homo sapiens, single dose 10 µM, '-' = no inhibition, read-out: % Growth Inhibition
Summary of the method: as §1

SF-268 = assay: NCI-60 single-dose screen; type: cell-based; conditions: Homo sapiens, single dose 10 µM, '-' = no inhibition, read-out: % Growth Inhibition
Summary of the method: as §1

RPMI-8226 = assay: NCI-60 single-dose screen; type: cell-based; conditions: Homo sapiens, single dose 10 µM, '-' = no inhibition, read-out: % Growth Inhibition
Summary of the method: as §1

BT-549 = assay: NCI-60 single-dose screen; type: cell-based; conditions: Homo sapiens, single dose 10 µM, '-' = no inhibition, read-out: % Growth Inhibition
Summary of the method: as §1

SF-539 = assay: NCI-60 single-dose screen; type: cell-based; conditions: Homo sapiens, single dose 10 µM, '-' = no inhibition, read-out: % Growth Inhibition
Summary of the method: as §1

ACHN 1 = assay: NCI-60 single-dose screen; type: cell-based; conditions: Homo sapiens, single dose 10 µM, '-' = no inhibition, read-out: % Growth Inhibition
Summary of the method: as §1

SK-MEL-2 = assay: NCI-60 single-dose screen; type: cell-based; conditions: Homo sapiens, single dose 10 µM, '-' = no inhibition, read-out: % Growth Inhibition
Summary of the method: as §1

K-562 = assay: NCI-60 single-dose screen; type: cell-based; conditions: Homo sapiens, K562, single dose 10 µM, '-' = no inhibition, read-out: % Growth Inhibition
Summary of the method: as §1

LOX IMVI = assay: NCI-60 single-dose screen; type: cell-based; conditions: Homo sapiens, single dose 10 µM, '-' = no inhibition, read-out: % Growth Inhibition
Summary of the method: as §1

IGROV1 = assay: NCI-60 single-dose screen; type: cell-based; conditions: Homo sapiens, IGROV-1, single dose 10 µM, '-' = no inhibition, read-out: % Growth Inhibition
Summary of the method: as §1

OVCAR-3 = assay: NCI-60 single-dose screen; type: cell-based; conditions: Homo sapiens, single dose 10 µM, '-' = no inhibition, read-out: % Growth Inhibition
Summary of the method: as §1

CAKI-1 = assay: NCI-60 single-dose screen; type: cell-based; conditions: Homo sapiens, single dose 10 µM, '-' = no inhibition, read-out: % Growth Inhibition
Summary of the method: as §1

HT29 = assay: NCI-60 single-dose screen; type: cell-based; conditions: Homo sapiens, HT-29, single dose 10 µM, '-' = no inhibition, read-out: % Growth Inhibition
Summary of the method: as §1

UO-31 = assay: NCI-60 single-dose screen; type: cell-based; conditions: Homo sapiens, single dose 10 µM, '-' = no inhibition, read-out: % Growth Inhibition
Summary of the method: as §1

SNB-19 = assay: NCI-60 single-dose screen; type: cell-based; conditions: Homo sapiens, single dose 10 µM, '-' = no inhibition, read-out: % Growth Inhibition
Summary of the method: as §1

TK-10 = assay: NCI-60 single-dose screen; type: cell-based; conditions: Homo sapiens, single dose 10 µM, '-' = no inhibition, read-out: % Growth Inhibition
Summary of the method: as §1

SK-MEL-28 = assay: NCI-60 single-dose screen; type: cell-based; conditions: Homo sapiens, single dose 10 µM, '-' = no inhibition, read-out: % Growth Inhibition
Summary of the method: as §1

OVCAR-8 = assay: NCI-60 single-dose screen; type: cell-based; conditions: Homo sapiens, single dose 10 µM, '-' = no inhibition, read-out: % Growth Inhibition
Summary of the method: as §1

CCRF-CEM = assay: NCI-60 single-dose screen; type: cell-based; conditions: Homo sapiens, single dose 10 µM, '-' = no inhibition, read-out: % Growth Inhibition
Summary of the method: as §1

SR = assay: NCI-60 single-dose screen; type: cell-based; conditions: Homo sapiens, single dose 10 µM, '-' = no inhibition, read-out: % Growth Inhibition
Summary of the method: as §1

MCF7 = assay: NCI-60 single-dose screen; type: cell-based; conditions: Homo sapiens, single dose 10 µM, '-' = no inhibition, read-out: % Growth Inhibition
Summary of the method: as §1

HL-60(TB) = assay: NCI-60 single-dose screen; type: cell-based; conditions: Homo sapiens, single dose 10 µM, '-' = no inhibition, read-out: % Growth Inhibition
SK-OV-3 = assay: NCI-60 single-dose screen; type: cell-based; conditions: Homo sapiens, single dose 10 µM, '-' = no inhibition, read-out: % Growth Inhibition
Summary of the method: as §1

UACC-62 = assay: NCI-60 single-dose screen; type: cell-based; conditions: Homo sapiens, single dose 10 µM, '-' = no inhibition, read-out: % Growth Inhibition
Summary of the method: as §1

SN12C = assay: NCI-60 single-dose screen; type: cell-based; conditions: Homo sapiens, single dose 10 µM, '-' = no inhibition, read-out: % Growth Inhibition
Summary of the method: as §1

UACC-257 = assay: NCI-60 single-dose screen; type: cell-based; conditions: Homo sapiens, single dose 10 µM, '-' = no inhibition, read-out: % Growth Inhibition
Summary of the method: as §1

NCI/ADR-RES = assay: NCI-60 single-dose screen; type: cell-based; conditions: Homo sapiens, single dose 10 µM, '-' = no inhibition, read-out: % Growth Inhibition
Summary of the method: as §1

HCT-15 = assay: NCI-60 single-dose screen; type: cell-based; conditions: Homo sapiens, single dose 10 µM, '-' = no inhibition, read-out: % Growth Inhibition
Summary of the method: as §1

NCI-H322M = assay: NCI-60 single-dose screen; type: cell-based; conditions: Homo sapiens, single dose 10 µM, '-' = no inhibition, read-out: % Growth Inhibition
Summary of the method: as §1

CCSc1nc(-c2ccc(Cl)cc2)cc(-c2ccc(OC)cc2)n1 [Compound 10, 4-(4-Chlorophenyl)-2-(ethylthio)-6-(4-methoxyphenyl)pyrimidine]
melting point: 230 to 231 °C
inhibition at 10 µM (MOLT-4): 2.95%
inhibition at 10 µM (DU-145): < 0%
inhibition at 10 µM (SF-295): 2.91%
inhibition at 10 µM (NCI-H460): < 0%
inhibition at 10 µM (A498): 3.38%
inhibition at 10 µM (KM12): 1.5%
inhibition at 10 µM (EKVX): 7.83%
inhibition at 10 µM (RXF 393): < 0%
inhibition at 10 µM (NCI-H23): 0.32%
inhibition at 10 µM (M14): < 0%
inhibition at 10 µM (NCI-H522): 8.82%
inhibition at 10 µM (MDA-MB231/ATCC): < 0%
inhibition at 10 µM (MDA-MB-435): 8.38%
inhibition at 10 µM (SNB-75): 3%
inhibition at 10 µM (HCC-2998): < 0%
inhibition at 10 µM (MALME-3M): < 0%
inhibition at 10 µM (MDA-MB-468): < 0%
inhibition at 10 µM (PC-3): < 0%
inhibition at 10 µM (SW-620): < 0%
inhibition at 10 µM (SF-268): < 0%
inhibition at 10 µM (RPMI-8226): 6.56%
inhibition at 10 µM (BT-549): < 0%
inhibition at 10 µM (SF-539): < 0%
inhibition at 10 µM (ACHN 1): 2.57%
inhibition at 10 µM (SK-MEL-2): 6.03%
inhibition at 10 µM (K-562): 11.5%
inhibition at 10 µM (LOX IMVI): < 0%
inhibition at 10 µM (IGROV1): < 0%
inhibition at 10 µM (OVCAR-3): < 0%
inhibition at 10 µM (CAKI-1): 13.3%
inhibition at 10 µM (HT29): 9.13%
inhibition at 10 µM (UO-31): 10.5%
inhibition at 10 µM (SNB-19): 0.21%
inhibition at 10 µM (TK-10): 0.94%
inhibition at 10 µM (SK-MEL-28): < 0%
inhibition at 10 µM (OVCAR-8): < 0%
inhibition at 10 µM (CCRF-CEM): < 0%
inhibition at 10 µM (SR): 19.4%
inhibition at 10 µM (MCF7): 25.5%
inhibition at 10 µM (HL-60(TB)): 6.15%
inhibition at 10 µM (SK-OV-3): < 0%
inhibition at 10 µM (UACC-62): < 0%
inhibition at 10 µM (SN12C): 0.46%
inhibition at 10 µM (UACC-257): < 0%
inhibition at 10 µM (NCI/ADR-RES): 1.42%
inhibition at 10 µM (HCT-15): 14.4%
inhibition at 10 µM (NCI-H322M): < 0%

Source: article PMC11576293, “New series of 4,6-diaryl pyrimidines: facile synthesis and antiproliferative activity as dual EGFR/VEGFR-2 inhibitors” (Frontiers in Chemistry, 2024)
